Test system: conscious rats
Assay: Ringer's solution time control during chronic infusion of porcine RLX
Type: in vivo, rat
Settings: RLX 4 μg/hour s.c. day 5
Description: At least 7 days after the implantation of vascular and bladder catheters, osmotic minipumps containing either porcine RLX (4 μg/hour) or vehicle (Ringer's solution) were implanted in intact, female rats (n=7 and 6 rats, respectively). Renal function and MAP were measured on day 5 of relaxin infusion (three 30-minute urine and midpoint blood collections). Next, an infusion of L-NAME (2 μg/minute, a substrate competitive inhibitor of NO synthase) was administered intravenously (i.v.) by infusion pump (Model 200, KD Scientific, Boston, Mass.). Four 1-hour urine collections with midpoint blood samples were collected for the assessment of GFR, ERPF, and ERVR during the L-NAME administration. Identical procedures were performed on additional animals chronically administered porcine RLX (n=5) or vehicle (n=5), except that ANG II (3 ng/minute) was infused rather than L-NAME. Finally, another four, age-matched control rats were administered Ringer's solution instead of either L-NAME or ANG II on day 5 of porcine RLX infusion.
Another group of rats chronically treated with porcine RLX was administered Ringer's solution instead of L-NAME or ANG II, and thus served as time controls. Neither MAP nor any of the renal parameters were consistently altered over the 6 hours or so of vehicle infusion, as shown in Table 3. Values are provided as mean±SEM. Relaxin, RLX. n=4 rats. Ringer's solution was infused at the same flow rate as L-NAME (Table 1) or ANG II (Table 2), 12.5 μl/min. RLX was infused at 4 μg/hour by osmotic minipump s.c.

[1] = Baseline before Ringer's solution
[2] = Ringer's solution 12.5 μl/min, 60 min
[3] = Ringer's solution 12.5 μl/min, 120 min
[4] = Ringer's solution 12.5 μl/min, 180 min
[5] = Ringer's solution 12.5 μl/min, 240 min

**Q.** With “Porcine RLX: lyophilized, purified porcine relaxin (Sherwood and O'Byrne 1974), dissolved in Ringer's solution” as the substance, how does the ERPF [1] read?
**A.** 12,927

**Q.** And the ERVR [1]?
**A.** 5.93

**Q.** What about the GFR [1] of the same substance?
**A.** 2997

**Q.** What about the MAP [1] of the same substance?
**A.** 119

**Q.** What about the ERPF [2] of the same substance?
**A.** 12,630

**Q.** What about the ERVR [2] of the same substance?
**A.** 6.19

**Q.** And the GFR [2]?
**A.** 3008

**Q.** What about the MAP [2] of the same substance?
**A.** 123

**Q.** What about the ERPF [3] of the same substance?
**A.** 12,347

**Q.** What about the ERVR [3] of the same substance?
**A.** 6.40

**Q.** And the GFR [3]?
**A.** 3086

**Q.** What about the MAP [3] of the same substance?
**A.** 121

**Q.** And the ERPF [4]?
**A.** 12,353

**Q.** What about the ERVR [4] of the same substance?
**A.** 6.52

**Q.** And the GFR [4]?
**A.** 3077

**Q.** And the MAP [4]?
**A.** 122

**Q.** What about the ERPF [5] of the same substance?
**A.** 12,090

**Q.** What about the ERVR [5] of the same substance?
**A.** 6.53

**Q.** And the GFR [5]?
**A.** 3223

**Q.** What about the MAP [5] of the same substance?
**A.** 121

Source: patent publication US6723702B2, “Use of relaxin treat diseases related to vasoconstriction” (RAS Medical, Inc., priority 2000, dated 2004)
